Assay [1] concerns U-87 MG. Description: Antiproliferative activity against human U87MG cells after 48 hrs by MTS assay. It counts as functional, cell-based, U-87MG ATCC.
In assay [2] the test system is U373 MG. The experiment in a line: Antiproliferative activity against human U373MG cells after 48 hrs by MTS assay. It counts as functional, cell-based, U-373MG ATCC. (In general: Formazan colour is commonly taken as a measure of viable cells.)
Assay [3] relates to U-87 MG. Description: Antiproliferative activity against human U87 cells. It counts as functional, cell-based, U-87MG ATCC.
Assay [4] relates to U-87 MG. Description: Antiproliferative activity against human U87MG cells after 72 hrs by MTS assay. It counts as functional, cell-based, U-87MG ATCC.
The nature of assay [5]: Antiproliferative activity against human PRT-HU2 cells after 72 hrs by MTS assay. It is filed as functional, cell-based.
The test system of assay [6] is U373 MG. Description: Antiproliferative activity against human U373MG cells after 72 hrs by MTS assay. It is filed as functional, cell-based, U-373MG ATCC.
The test system of assay [7] is T98G. Description: Antiproliferative activity against human T98G cells after 72 hrs by MTS assay. It is filed as functional, cell-based.
For assay [8], the system named is U-87 MG. Description: Antiproliferative activity against human U87MG cells after 96 hrs by SRB assay. It counts as functional, U-87MG ATCC. (Sulforhodamine B stains cellular protein and so reports cell mass.)
Assay [9] deals with U-87 MG. The experiment in a line: Antiproliferative activity against human U87MG cells after 72 hrs by MTT assay. It counts as functional, cell-based, U-87MG ATCC.
Assay [10] concerns C6. Description: Antiproliferative activity against rat C6 cells at 50 uM after 24 hrs by MTT assay relative to control. It is filed as functional.
The test system of assay [11] is U-87 MG. The experiment in a line: Antiproliferative activity against human U87MG cells after 24 hrs by WST-1 assay. It is filed as functional, cell-based, U-87MG ATCC.
Assay [12] is described as follows: Antiproliferative activity against human M059K cells after 48 hrs by WST-1 assay. It counts as functional, cell-based.
The subject of assay [13] is U-87 MG. The experiment in a line: Antiproliferative activity against human U87 cells assessed as reduction in cell viability after 72 hrs by AlamarBlue assay. It is filed as functional, cell-based, U-87MG ATCC.
Assay [14] deals with U-251. Description: Antiproliferative activity against human U251 cells assessed as reduction in cell viability after 72 hrs by AlamarBlue assay. It counts as functional, cell-based. The conditions noted are these: U-251, 72 h. (In general: Resazurin is reduced to fluorescent resorufin, in cell work by metabolically active cells.)
Assay [15] concerns U-87 MG. Description: Antiproliferative activity against human U87 cells over-expressing EGFRvIII assessed as reduction in cell viability after 72 hrs by AlamarBlue assay. It counts as functional, cell-based, U-87MG ATCC.
Assay [16] relates to U-251. The experiment in a line: Antiproliferative activity against human U251 cells after 24 hrs by SRB assay. It is filed as functional, cell-based. The conditions noted are these: U-251, 24 h.
For assay [17], the target named is Histone deacetylase. Description: Inhibition of mouse liver HDAC using Boc-Lys (Ac)-AMC as substrate preincubated for 5 mins followed by substrate addition and measured after 30 mins by fluorescence assay.
The subject of assay [18] is SF-295. The experiment in a line: Antiproliferative activity against human SF295 cells after 72 hrs by MTT assay. It counts as functional, cell-based. The conditions noted are these: SF-295, 72 h.
Assay [19] concerns SNB-19. Description: Antiproliferative activity against human SNB19 cells after 72 hrs by WST-1 assay. It is filed as functional, cell-based. The conditions noted are these: SNB-19, 72 h.
The test system of assay [20] is SF-295. Description: Cytotoxicity against human SF295 cells after 72 hrs by MTT assay. It is filed as functional, cell-based. The conditions noted are these: SF-295, 72 h.
Assay [21] relates to PBMC. The experiment in a line: Cytotoxicity against human PBMC after 72 hrs by MTT assay. It counts as cell-based.
Assay [22] is described as follows: Antiproliferative activity against human GBM95 cells after 72 hrs by MTT assay. It counts as functional, cell-based.
Assay [23] concerns U-87 MG. The experiment in a line: Antiproliferative activity against human U87 cells after 48 hrs by MTT assay. It is filed as functional, U-87MG ATCC.
A short description of assay [24]: Antiproliferative activity against human BT74 cells after 72 hrs by WST-1 assay. It is filed as functional, cell-based.
Assay [25] in a line: Antiproliferative activity against human MGG4 cells after 72 hrs by WST-1 assay. It counts as functional, cell-based.
Assay [26] in a line: Antiproliferative activity against human MGG8 cells after 72 hrs by WST-1 assay. It counts as functional, cell-based.
Assay [27] relates to U-87 MG. The experiment in a line: Antiproliferative activity against human U87 cells after 72 hrs by WST-1 assay. It is filed as functional, cell-based, U-87MG ATCC.
Assay [28] relates to A 172. Description: Antiproliferative activity against human A172 cells after 72 hrs by WST-1 assay. It is filed as functional, cell-based. The conditions noted are these: A 172, 72 h.
Assay [29] deals with U-251. Description: Antiproliferative activity against human U251 cells after 72 hrs by WST-1 assay. It counts as functional, cell-based. The note with it: U-251, 72 h.
In assay [30] the test system is U-251. The experiment in a line: Antiproliferative activity against human U251 cells after 24 hrs by MTT assay. The conditions noted are these: U-251, 24 h. It is filed as functional, cell-based.
Assay [31] in a line: Antiproliferative activity against human D456 cells after 7 days […] by CellTiter Glo assay. It counts as functional, cell-based. The note with it: 168 h.
Assay [32] can be described thus: Cytotoxicity against patient derived GSC after 96 hrs by CellTiter-Glo assay. It counts as functional, Homo sapiens.
Assay [33] has as its system U-251. The experiment in a line: Antiproliferative activity against human U251 cells by MTT assay. It counts as functional, cell-based.
Assay [34] has as its system LN-229. Description: Antiproliferative activity against human LN229 cells after 5 days by AlamarBlue assay. It counts as functional, cell-based. The conditions noted are these: LN-229, 120 h.
The test system of assay [35] is T98G. Description: Antiproliferative activity against human T98G cells after 5 days by AlamarBlue assay. It is filed as functional, cell-based. The conditions noted are these: 120 h.
For assay [36], the system named is U138-MG. The experiment in a line: Antiproliferative activity against human U138MG cells after 5 days by AlamarBlue assay. It counts as functional, cell-based. The conditions noted are these: 120 h.
Assay [37] can be described thus: Antiproliferative activity against human U373 cells after 5 days by AlamarBlue assay. It counts as functional, cell-based, U-373MG ATCC. The conditions noted are these: U373 MG, 120 h.
The subject of assay [38] is U-87 MG. The experiment in a line: Antiproliferative activity against human U87 cells after 5 days by AlamarBlue assay. The conditions noted are these: 120 h. It is filed as functional, cell-based, U-87MG ATCC.
In assay [39] the test system is U-87 MG. Description: Antiproliferative activity against human U87MG cells after 96 hrs. It is filed as functional, U-87MG ATCC.
Assay [40] concerns U-87 MG. Description: Antitumor activity against human U87MG cells xenografted in nude-Fox1nu mouse assessed as tumor growth inhibition at 150 mg/kg bid relative to control. The conditions noted are these: read-out: TGI. It is filed as functional, U-87MG ATCC.
Assay [41] in a line: Antiproliferative activity against human U3046MG cells by CellTiter-Glo assay. It counts as functional, cell-based.
Assay [42] is described as follows: Antiproliferative activity against human U3005MG cells by CellTiter-Glo assay. It counts as functional, cell-based.

Values after ≈ are worked out from the molar mass of the structure shown.

The term IC50 denotes the concentration that gives 50% inhibition. The low end stands for inhibition by little substance, the high end for a need for much substance. As to `O=C1[C@@H]2CS[C@]3(C(=O)Nc4ccccc43)N2C(=O)N1Cc1ccc(Cl)cc1`, the half-inhibitory concentration (IC50) in assay [1] stood at 2.5 µM; in assay [2], 5.7 µM.

Consider `NS(=O)(=O)c1cccc2c1C(=O)c1cccc(O)c1C2=O`, for which the half-maximal inhibitory concentration (IC50) in assay [3] was determined as 0.21 µM.

Take `Clc1ccccc1CNc1ncnc2c1cnn2CC(Cl)c1ccc(Br)cc1` (centres undefined): the concentration for half-maximal inhibition (IC50) in assay [4] turned out to be 14.9 µM; in assay [5], 14.3 µM; in assay [6], 17.9 µM; in [7], 12.5 µM.

Broadly, the GI50 is the concentration giving 50% growth inhibition. Low readings indicate more potent growth inhibition, high ones less potent growth inhibition. Take `NC1(Cc2ccc(Cl)cc2)CCN(c2ncnc3[nH]ccc23)CC1`: growth in assay [8] was halved (GI50) at 6.3 µM.

`O=C1C=C(O)C(=O)C(CC2CCC3CCCCC3C2)=C1O` (centres undefined) yielded an IC50 in assay [9] of 23.6 µM.

As to `Brc1c(Br)c(Br)c2[nH]cnc2c1Br`, the Activity in assay [10] worked out at 50%.

As for `COc1ccc(/N=C/c2c(O)ccc3c2oc2cc(Cl)c(O)c(Cl)c23)cc1`, the IC50 in assay [11] is 25 µM; in assay [12] it was 40 µM.

By EC50 is commonly meant the concentration needed to bring the measured effect to its halfway point. `O=C(CCCc1ccc(-c2cccnc2F)cc1)Nc1ccc(O)cc1`: the EC50 in [13] was found to be 1.4 µM; in assay [14] it was 1.6 µM; in assay [15] it was 1.7 µM.

As for `O=C(CCCCCn1cc(C(=O)Nc2nc3ccccc3s2)c(=O)c2ccccc21)NO`, the IC50 in assay [16] is 0.7 µM; in [17] it was 0.0015 µM.

For `COc1ccc2c(c1)c(=O)c(C(=O)Nc1nc3ccccc3s1)cn2CCCCCC(=O)NO`, the half-maximal inhibitory concentration (IC50) in assay [16] stood at 0.8 µM; in assay [17], 0.028 µM.

For `CC1(C)OC2=C(C(=O)C(=O)c3ccccc32)[C@H](n2cc(C[Se]c3ccc(F)cc3)nn2)[C@H]1Br`, the 50% inhibitory concentration (IC50) in assay [18] is 1.48 µM.

In assay [19], `C#CCSc1nc(Cl)nc2nc(SCC#C)n(C)c12` displayed an IC50 of 0.07 µg/mL (≈ 0.227 µM).

For `O=C(O)CNC1=CC(=O)c2ccccc2C1=O`, the values for the IC50 in assay [20] and in assay [21] were 2.4 µM and 23.8 µM, respectively.

Regarding `CC(C)=CCC1=C(NCCCCN(CN)CCCc2ccccc2)C(=O)c2ccccc2C1=O`, the figures for the 50% inhibitory concentration (IC50) in [22] and in assay [9] were 6.6 µM and 4.3 µM, respectively.

In the case of `O=C1C=C(N[C@@H](Cc2ccccc2)C(=O)O)C(=O)c2ccccc21`, the concentration for half-maximal inhibition (IC50) in assay [20] was 2 µM; in assay [21], 37.9 µM.

For the molecule `Cn1cnc2nc(Cl)nc(SCC#CCN3CCCC3)c21`, a half-maximal effect in assay [19] (EC50) was put at 5 µg/mL (≈ 15.5 µM).

Regarding `Cc1nc(=O)c2c(-c3ccccc3)c(C(=O)c3ccccc3)[nH]c2[nH]1`, the concentration for 50% growth inhibition (GI50) in assay [23] was 0.077 µM.

For the molecule `CCn1c(C)c(C(=O)c2ccc(C)c3ccccc23)c2ccccc21`, the EC50 in assay [24], in assay [25], in assay [26], in [27], in assay [28] and in assay [29] was 2400 to 8600 µM in each case.

`Cc1ccc(-c2nnc(SCC(=O)N3N=C(c4cccs4)CC3c3ccc(Cl)cc3)o2)cc1` (centres undefined) showed a 50% inhibitory concentration (IC50) in assay [30] of 11.9 µM.

In assay [31], `O=C1CC(c2ccc(-c3cc[nH]n3)s2)c2cc(N3CCNC3=O)ccc2N1` (centres undefined) showed an IC50 of 1.69 µM.

In assay [32], `CCN(CC)C(=S)SSC(=S)N(CC)CC` displayed an IC50 of 0.0311 µM.

Turning to `O[C@@H](c1cc(C(F)(F)F)nc2c(C(F)(F)F)cccc12)[C@H]1CCCCN1` [(S,R)-MEFLOQUINE], in [33], the IC50 was determined as 10 µM.

As to `O=C(Nc1ccc([N+](=O)[O-])cc1Cl)c1cc(Cl)ccc1O` [NICLOSAMIDE], the IC50 in assay [34], in [35], in assay [36], in assay [37] and in [38] was 0.3 to 1.2 µM in each case.

`CS(=O)(=O)N1CCN(Cc2cc3nc(-c4cccc5[nH]ncc45)nc(N4CCOCC4)c3s2)CC1` [PICTILISIB] displayed a GI50 in [39] of 0.07 µM. Also, the inhibition in vivo at 150 mg/kg in [40] was determined as 98%.

`CCN(CC)CCCC(C)Nc1c2ccc(Cl)cc2nc2ccc(OC)cc12` (centres undefined) [QUINACRINE] showed an IC50 in [33] of 5 µM.

`CN1CCN(CCCN2c3ccccc3Sc3ccc(C(F)(F)F)cc32)CC1` [TRIFLUOPERAZINE]: the EC50 in assay [41] is 1.34 µM; in assay [42], 1.85 µM.

(Values after ChEMBL document CHEMBL4422617, “Recent advances in the discovery of small molecules targeting glioblastoma” (Eur J Med Chem, 2019).)
